Values after ≈ are worked out from the molar mass of the structure shown.
Assays:
[1] = molecular target: T1, human C5 complement protein (Homo sapiens, UniProt P01031); experiment: Surface plasmon resonance (SPR), immobilized human C5, 37° C. (Example 18, Table 24); format: binding; conditions: lowest value obtained where a range of concentrations was analyzed
[2] = Kinetic solubility in PBS pH 7.4, HPLC-UV (Example 21, Table 27); format: physicochemical; conditions: phosphate buffered saline, aqueous buffer, kinetic from dmso stock, 0.5 M PBS, shaken minimum 24 h at approximately 25° C., HPLC-UV 270 nm
In short: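 Supernatant measured by HPLC-UV (270 nm) against a DMSO calibration curve of 15.6–500.0 μM after filtration. Triplicate samples were made from 10 mM DMSO stock in 0.05 M phosphate buffer pH 7.4 (5% DMSO) and shaken at least 24 h at about 25 °C.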

[3] = Permeability assay, unidirectional transport, Papp (Example 30, Table 34); format: in vitro ADME, canine; conditions: dog, pH 7.4; MDCK-WT cell monolayers, A-to-B, 3 μM test compound, 37° C., duplicate determinations
Description: Permeability assays were carried out to provide a preliminary indication of suitability for oral dosing and compound permeability across the blood brain barrier. Unidirectional and bidirectional compound transport across Madin Darby canine kidney (MDCK) cell monolayers was assessed. For unidirectional transport assessment, transport across MDCK wild type (MDCK-WT) cell monolayers was assessed. For bidirectional transport, transport across MDCK-MDR1 cell monolayers was assessed. MDCK-MDR1 cells express the MDR1 gene encoding the P-glycoprotein (P-gp) efflux protein.
MDCK-WT and MDCK-MDR1 cells were plated onto permeable polycarbonate supports in 12-well Costar transwell plates and allowed to grow and differentiate for 3 days. After 3 days in culture, the culture medium (DMEM supplemented with 10% FBS) was removed from both sides of the transwell inserts and cells were rinsed with warm HBSS. After the rinse step, the chambers were filled with warm transport buffer (HBSS containing 10 mM HEPES, 0.25% BSA, pH 7.4) and the plates were pre-incubated at 37° C. for 30 minutes prior to TEER (Trans Epithelial Electric Resistance) measurements.
The buffer in the donor chamber (apical side for A-to-B assay, basolateral side for B-to-A assay) was removed and replaced with the working solution (3 μM test compound and 10 μM for control compounds in transport buffer). The plates were then placed at 37° C. under light agitation. At designated time points (30, 60 and 90 min), an aliquot of transport buffer from the receiver chamber was removed and replenished with fresh transport buffer. Samples were quenched with ice-cold ACN containing internal standard and then centrifuged to pellet protein. Resulting supernatants were further diluted with 50/50 ACN/H2O (Atenolol diluted in just water) and submitted for LC-MS/MS analysis. Apparent permeability (Pap) values were calculated from duplicate determinations. Atenolol and propranolol were tested as low and […] permeability references.
Papp values indicate extent of compound permeation across monolayers.

[4] = molecular target: T1, human C5 complement protein; experiment: Surface plasmon resonance (SPR), immobilized human C5, 37° C. (Example 27, Table 31); format: binding; conditions: lowest value obtained where a range of concentrations was analyzed (Table 31)
[5] = molecular target: T2, Human C5 (Homo sapiens, UniProt P01031); experiment: Red blood cell (RBC) hemolysis assay, luminescent (Example 28, Table 32); format: cell-based; conditions: sheep EA cells, 1.5% C5-depleted human serum, 0.5 nM human C5, 1 hour at 37° C., luminescence (Table 32)
T2 construct: purchased Complement Technology
T2 sequence (P01031 19-1676): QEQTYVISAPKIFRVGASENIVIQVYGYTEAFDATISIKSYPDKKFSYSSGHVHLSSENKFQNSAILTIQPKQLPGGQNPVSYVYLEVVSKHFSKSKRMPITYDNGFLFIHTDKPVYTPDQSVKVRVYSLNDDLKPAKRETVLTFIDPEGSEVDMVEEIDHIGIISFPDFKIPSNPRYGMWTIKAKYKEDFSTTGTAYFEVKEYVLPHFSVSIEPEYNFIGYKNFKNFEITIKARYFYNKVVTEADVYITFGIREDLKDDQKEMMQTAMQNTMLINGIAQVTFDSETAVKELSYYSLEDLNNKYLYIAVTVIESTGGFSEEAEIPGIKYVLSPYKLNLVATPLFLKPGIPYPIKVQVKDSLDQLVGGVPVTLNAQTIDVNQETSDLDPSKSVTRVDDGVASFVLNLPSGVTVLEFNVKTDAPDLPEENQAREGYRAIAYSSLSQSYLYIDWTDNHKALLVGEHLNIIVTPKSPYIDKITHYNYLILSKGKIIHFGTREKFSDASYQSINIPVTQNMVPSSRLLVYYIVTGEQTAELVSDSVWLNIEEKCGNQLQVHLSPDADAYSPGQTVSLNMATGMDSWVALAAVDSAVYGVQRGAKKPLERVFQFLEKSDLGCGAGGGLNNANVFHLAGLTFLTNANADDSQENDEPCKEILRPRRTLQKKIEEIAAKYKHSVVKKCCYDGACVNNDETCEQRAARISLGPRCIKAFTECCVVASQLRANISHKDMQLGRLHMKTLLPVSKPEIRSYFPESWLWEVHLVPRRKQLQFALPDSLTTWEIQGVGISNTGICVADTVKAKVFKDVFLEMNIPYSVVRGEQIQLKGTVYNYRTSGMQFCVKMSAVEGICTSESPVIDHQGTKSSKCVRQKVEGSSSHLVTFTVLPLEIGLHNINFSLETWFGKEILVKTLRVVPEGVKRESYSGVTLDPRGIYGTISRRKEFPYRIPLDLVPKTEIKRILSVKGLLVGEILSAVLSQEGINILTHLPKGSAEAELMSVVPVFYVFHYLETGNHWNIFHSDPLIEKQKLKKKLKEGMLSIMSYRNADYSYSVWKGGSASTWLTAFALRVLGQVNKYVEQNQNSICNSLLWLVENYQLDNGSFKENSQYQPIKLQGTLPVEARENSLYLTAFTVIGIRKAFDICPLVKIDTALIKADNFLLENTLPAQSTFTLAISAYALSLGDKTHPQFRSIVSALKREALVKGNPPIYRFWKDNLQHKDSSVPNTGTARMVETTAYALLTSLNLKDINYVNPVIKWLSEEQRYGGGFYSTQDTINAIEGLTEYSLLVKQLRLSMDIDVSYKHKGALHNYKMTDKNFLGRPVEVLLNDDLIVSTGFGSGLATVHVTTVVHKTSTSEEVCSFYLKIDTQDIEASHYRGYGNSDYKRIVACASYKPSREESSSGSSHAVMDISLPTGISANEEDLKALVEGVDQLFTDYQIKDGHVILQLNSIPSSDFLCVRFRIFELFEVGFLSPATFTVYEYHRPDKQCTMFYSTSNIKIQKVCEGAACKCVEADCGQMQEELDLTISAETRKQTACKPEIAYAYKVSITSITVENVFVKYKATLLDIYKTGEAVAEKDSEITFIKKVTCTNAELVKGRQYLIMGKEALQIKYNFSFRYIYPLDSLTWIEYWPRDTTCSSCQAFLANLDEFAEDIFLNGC

T1 sequence (P01031 19-1676): as above

SMILES	Kd [1] [nM]	solubility kinetic [2] [µM]	Papp A→B at 3 μM [3] [×10⁻⁶ cm/s]	Kd [4] [nM]	IC50 [5] [nM]
COc1cc(CC(=O)N2CCOCC2)ccc1CN1CCCN(c2ccc(OC)c(OCCCC3CC3)c2)C1=O [CU0511]	0.47	310 (≈ 171 µg/mL)	16.6		
CCCCCOc1cc(N2CCCN(Cc3ccnc4c3c(Cl)cn4CC(=O)N3CC(O)C3)C2=O)ccc1OC [CU0518]	0.82	47 (≈ 26.8 µg/mL)	1.1		
CCCCCOc1cc(N2CCCN(Cc3ccnc4c3c(Cl)cn4CC(=O)N3CCOCC3)C2=O)ccc1OC [CU0526]	0.052	< 10	16.8		
CCCCCOc1cc(N2CCCN(Cc3ccnc4c3c(Cl)cn4CC(=O)N3CCO[C@H](CN(C)C)C3)C2=O)ccc1OC [CU0533]	0.056	294 (≈ 189 µg/mL)	1.7		
CCCCCOc1cc(N2CCCN(Cc3ccnc4c3c(Cl)cn4CC(=O)N3CC[C@@H](OC)C3)C2=O)ccc1OC [CU0534]	0.363	85 (≈ 50.8 µg/mL)	17.4		
CCCCCOc1cc(N2CC[C@H](C)N(Cc3cccc4c3c(C)cn4CC(=O)N3CCCOCC3)C2=O)ccc1OC [SC0103]		24 (≈ 14.2 µg/mL)		0.08	1
CCCCCOc1cc(N2CC(CO)CN(Cc3ccc(CNC(=O)c4cocn4)cc3OC)C2=O)ccc1OC (centres unmarked) [SC0104]		< 10		0.89	1.1
CCCCCOc1cc(N2CC[C@H](C)N(Cc3cccc4c3c(C)cn4CC(=O)N(C)C3CCN(CC)C3)C2=O)ccc1OC (some centres unmarked) [SC0105]		399 (≈ 247 µg/mL)		0.08	1.1
CCCCCOc1cc(N2CC[C@H](C)N(Cc3ccnc4c3c(Cl)cn4CC(=O)N3CCNC(=O)C3)C2=O)ccc1OC [SC0106]		119 (≈ 72.7 µg/mL)		0.08	1.1
CCCCCOc1cc(N2CC[C@H](C)N(Cc3cccc4c3c(C)cn4CC(=O)N(C)C)C2=O)ccc1OC [SC0107]		52 (≈ 27.8 µg/mL)		0.36	1.1
COc1cc(CC(=O)N[C@H]2CCNC2)ccc1CN1C(=O)N(c2ccc(OC)c(OCCCC3CC3)c2)CC[C@@H]1C [SC0114]		252 (≈ 142 µg/mL)	0.1		1.3
COc1ccc(N2CC[C@H](C)N(Cc3cccc4c3c(Cl)cn4CC(=O)N3CCOCC3)C2=O)cc1OCCCC1CC1 [SC0115]		< 10		0.18	1.4
COc1ccc(N2CC[C@H](C)N(Cc3cccc4c3c(Cl)cn4CC(=O)N(C)C)C2=O)cc1OCCCC1CC1 [SC0116]		< 10		0.02	1.4
COc1ccc(N2CC[C@H](C)N(Cc3ccnc4c3c(Cl)cn4CC(=O)N(C)C)C2=O)cc1OCCCC1CC1 [SC0119]		65 (≈ 36.9 µg/mL)		1.21	1.4
CCCCCOc1cc(N2CC[C@H](C)N(Cc3ccnc4c3c(Cl)cn4CC(=O)N3CCC3)C2=O)ccc1OC [SC0122]		81 (≈ 46 µg/mL)		0.22	1.5
COc1ccc(N2CC[C@H](C)N(Cc3cccc4c3c(Cl)cn4CC(=O)N(C)C)C2=O)cc1OCCCC1CCC1 [SC0125]				0.09	1.6
CCCCCOc1cc(N2CC[C@H](C)N(Cc3cccc4c3c(Cl)cn4CC(=O)N3CCCOCC3)C2=O)ccc1OC [SC0128]		< 10		0.02	1.7

SMILES	Kd [1] [nM]	solubility kinetic [2] [µM]	Papp A→B at 3 μM [3] [×10⁻⁶ cm/s]	Kd [4] [nM]	IC50 [5] [nM]
COc1cc(CC(=O)N2CCO[C@H](CN(C)C)C2)ccc1CN1C(=O)N(c2ccc(OC)c(OCCCC3CC3)c2)CC[C@@H]1C [SC0134]		266 (≈ 166 µg/mL)	2.2		1.8
COc1cc(CC(=O)N2CCO[C@@H](CN(C)C)C2)ccc1CN1C(=O)N(c2ccc(OC)c(OCCCC3CC3)c2)CC[C@@H]1C [SC0146]		486 (≈ 303 µg/mL)	2.6		2.1
CCCCCOc1cc(N2CC[C@H](C)N(Cc3cccc4[nH]cc(C)c34)C2=O)ccc1OC [SC0148]		< 10		0.92	2.2
CCN1CC[C@H](N(C)C(=O)Cc2ccc(CN3C(=O)N(c4ccc(OC)c(OCCCC5CC5)c4)CC[C@@H]3C)c(OC)c2)C1 [SC0149]			3.5		2.2
CCCCCOc1cc(N2CC[C@H](C)N(Cc3ccnc4c3c(Cl)cn4CC(=O)N3CC(N(C)C)C3)C2=O)ccc1OC [SC0155]			9.9		2.6
CCCCCOc1cc(N2CC[C@H](C)N(Cc3ccnc4c3c(Cl)cn4CC(=O)N3CCOC(CN(C)C)C3)C2=O)ccc1OC (some centres unmarked) [SC0156]		348 (≈ 228 µg/mL)	1.3		2.6
CCCCCOc1cc(N2CC(C)CN(Cc3ccc(CNC(=O)c4cnco4)cc3OC)C2=O)ccc1OC (centres unmarked) [SC0159]				0.4	2.7
COc1ccc(N2CC[C@H](C)N(Cc3cccc4c3ccn4CC(=O)N3CCOCC3)C2=O)cc1OCCCC1CC1 [SC0164]		426 (≈ 245 µg/mL)	14.3		2.9
CCCCCOc1cc(N2CC[C@H](C)N(Cc3cccc4c3ccn4CC(=O)N(C)CC#N)C2=O)ccc1OC [SC0168]				0.79	3.3
CCCCCOc1cc(N2CC[C@H](C)N(Cc3cccc4c3c(Cl)cn4CC3=NCCN3C)C2=O)ccc1OC [SC0169]			1.8		3.5
CCCCCOc1cc(N2CC(C)CN(Cc3ccc(CNC(=O)c4cocn4)cc3OC)C2=O)ccc1OC (centres unmarked) [SC0170]				0.77	3.7
CCCCCOc1cc(N2CC[C@H](C)N(Cc3cccc4c3ccn4CC(=O)N3CCO[C@@H](CN(C)C)C3)C2=O)ccc1OC [SC0171]		356 (≈ 221 µg/mL)	2		3.7
CCCCCOc1cc(N2CC[C@H](C)N(Cc3cccc4c3ccn4CC(=O)N3CCO[C@H](CN(C)C)C3)C2=O)ccc1OC [SC0177]		309 (≈ 192 µg/mL)	1.3		4.7
COc1cc(CC(N)=O)ccc1CN1CC(C)CN(c2ccc(OC)c(OCCCC3CC3)c2)C1=O (centres unmarked) [SC0179]				0.88	4.9
CCCCCOc1cc(N2CC(C)CN(Cc3ccc(CC(=O)N4CCCOCC4)cc3OC)C2=O)ccc1OC (centres unmarked) [SC0186]				1.85	5.8
CCCCCOc1cc(N2CC(CO)CN(Cc3ccc(CC(=O)N4CCCOCC4)cc3OC)C2=O)ccc1OC (centres unmarked) [SC0190]				2.8	7.1
